Laboratory results taken from patent US20120157401A1, “METHODS FOR TREATING NEUROFIBROMATOSIS” (PTC Therapeutics, Inc., priority 2009, published 2012).
Marks after values point to notes of the source that are not given here.

What was measured:
CYPC19 = target: T1, CYPC19 (Homo sapiens, UniProt P33261); experiment: CYP inhibition: CYPC19; assay type: in vitro ADME; conditions: human hepatic microsomes or recombinant isoenzymes
T1 construct: host or cells: human hepatic microsomes or recombinant isoenzyme (not distinguished)
From the text: It is possible that in certain clinical trial subjects, such agents may need to be adjusted for dosing or replaced by alternative agents that are not metabolized by CYP2D6, particularly when such agents may have a low therapeutic index.

[1] = test system: soluble VEGF121 and VEGF165 isoforms; experiment: ELISA of soluble VEGF production in nontransformed keratinocytes during hypoxia or normoxia; assay type: cell-based, human; conditions: 72 hours
Procedure: Experimental Design. Nontransformed normal human keratinocyte cell cultures were established under normoxic conditions (21% oxygen). […] At the completion of treatment, cells were assessed for viability with an ATP assay and conditioned media were evaluated for VEGF protein levels by ELISA (as described in Section 9.1.1.1).

[2] = test system: HT1080 tumor cells in vivo; experiment: HT1080 xenograft studies of Compound 1205, Compound #10 and Compound 1330: tumor growth; set-up: species or system athymic nude mice; conditions: Study 24a, 10 mg/kg QD
From the text: Experimental Design. HT1080 cells (5×10^6 cells/mouse) were implanted subcutaneously in male athymic nude mice. […] For comparison, Compound #10 was included in this study.

[3] = Single-dose oral toxicity study in rats; assay type: in vivo
Procedure: A battery of genotoxicity studies was also performed. […] The L23 vehicle was used.
Because maximal exposure occurred at 100 mg/kg, this dose is considered the NOAEL for 1 day of dosing.

[4] = Functional observation battery, 7 days oral gavage; assay type: in vivo, Sprague Dawley rats; conditions: 40, 120, and 400 mg/kg daily for 7-days
HT1080 cells [5] = experiment: HT1080 spheroid cell viability and mobility (migration after re-plating); assay type: cell-based, human
Procedure: Experimental Design. […] Pictures were then taken 48 hours to assess the migration and proliferation of the cells across the well's surface.

[6] = Cardiovascular safety pharmacology in awake telemeterized dogs; assay type: in vivo, beagle dogs; conditions: single oral doses of 30, 60, and 120 mg/kg, male dogs
HT1080 cells [7] = experiment: Reversibility of cell cycle delay after washout in HT1080 cells; assay type: cell-based, human; conditions: HT1080, 100 nM for 14 hours, then washout
tumor VEGF = experiment: Tumor VEGF content ELISA in microvessel density study, HT1080 xenografts; assay type: in vivo, human; conditions: racemic mixture, 5 mg/kg of Compound #10 oral BID, 10 days
Procedure: (§1) Experimental Design. HT1080 cells (5×10^6 cells/mouse) were implanted subcutaneously in male athymic nude mice.
(§2) At the end of treatment, the mice were sacrificed. Excised tumors were assayed by ELISA for VEGF content as described in Section 9.1.1.1, and were sectioned and immunostained with an anti murine CD31 antibody that is specific for endothelial cells.

T47D xenografts = experiment: T47D estrogen-sensitive breast cancer xenograft: tumor growth
Procedure: Experimental Design. Estrogen pellets (0.72 mg/pellet) were implanted 30 days prior to cell implantation and again 60 days later. T47D estrogen-sensitive breast cancer cells (5×10^6 cells/mouse mixed 1:1 with […] ™) were implanted subcutaneously in female athymic nude mice. […] Tamoxifen was included as a positive control.
Tumor size was measured by calipers at periodic intervals. After 74 days of treatment, the mice were sacrificed.

HT1080 xenografts [8] = experiment: BrdU labeling of cells from HT1080 xenografts grown in nude mice; assay type: in vivo, athymic nude mice; conditions: Day 1, 2, 3; Compound #10 10 mg/kg oral QD, doxorubicin 6 mg/kg IP, bevacizumab 5 mg/kg IP
Procedure: as §1
The mice were sacrificed 3 hours later, and the tumors collected. A single cell suspension was prepared from the tumor cells. The cells were permeabilized and an antibody to BrdU was used to stain cells that had entered S phase during the labeling period. The proportion of cells actively synthesizing DNA was determined by cell sorting.

[9] = ECG and blood pressure assessments in 7-day and 28-day GLP toxicity studies
[10] = test system: soluble VEGF121 and VEGF165 isoforms; experiment: Inhibition of soluble VEGF production in human tumor cell lines (ELISA, EC50); assay type: cell-based
Procedure: Study Design. […] In these experiments, cultures were established under normoxic conditions (21% oxygen). […] Cells requiring induction of VEGF production were incubated under hypoxic conditions (1% oxygen). At the completion of treatment, the conditioned media were collected and assayed by ELISA (as described in Section 9.1.1.1) for soluble VEGF121 and VEGF165 isoforms; results were calculated as percentage inhibition relative to vehicle treated controls. EC50 values were calculated from the dose concentration response curves.

HT1080 xenografts [11] = experiment: HT1080 xenograft dose response: tumor growth; assay type: in vivo, athymic nude mice; conditions: 18 days
Procedure: Experimental Study Design. HT1080 cells (5×10^6 cells/mouse) were implanted subcutaneously in male athymic nude mice.
Tumor size was measured using calipers at periodic intervals during the study (data shown in Section 9.2.2). […] The study was ended after 18 days, when the vehicle treated tumors reached a mean volume of ˜1755 mm^3. […] Mice were sacrificed, and excised tumors were homogenized in buffer containing protease inhibitors. Both terminal intratumoral and pathologic plasma human VEGF levels were measured using an ELISA that recognizes human VEGF121 and VEGF165 (as described in Section 9.1.1.1). Intratumoral VEGF levels were normalized to the total tumor protein concentration, while pathologic plasma human VEGF levels were expressed in pg/mL of plasma.
Experimental Design. The experimental design was reported in Section 9.1.2.2.

[12] = test system: tumor vessels (CD31 endothelial cells); experiment: Intratumoral microvessel density, anti-murine CD31 immunostain, HT1080 xenografts; assay type: in vivo, athymic nude mice; conditions: racemic mixture, 5 mg/kg of Compound #10 oral BID, 10 days
Procedure: as §1, §2

T1 sequence (P33261 whole entry): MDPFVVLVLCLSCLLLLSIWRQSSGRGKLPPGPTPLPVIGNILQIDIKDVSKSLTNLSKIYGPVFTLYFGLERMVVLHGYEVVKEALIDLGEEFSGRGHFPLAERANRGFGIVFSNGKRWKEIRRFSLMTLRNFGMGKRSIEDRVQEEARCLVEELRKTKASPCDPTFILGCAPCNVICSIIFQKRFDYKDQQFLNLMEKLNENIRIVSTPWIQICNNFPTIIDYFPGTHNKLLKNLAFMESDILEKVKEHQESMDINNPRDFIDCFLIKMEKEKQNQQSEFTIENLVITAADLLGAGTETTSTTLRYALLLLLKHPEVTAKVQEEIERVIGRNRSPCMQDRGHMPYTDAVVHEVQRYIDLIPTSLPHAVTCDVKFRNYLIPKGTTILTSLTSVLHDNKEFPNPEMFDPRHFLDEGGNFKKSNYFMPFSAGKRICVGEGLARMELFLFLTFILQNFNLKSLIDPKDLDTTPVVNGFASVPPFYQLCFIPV

COc1ccc(C2c3[nH]c4ccc(Cl)cc4c3CCN2C(=O)Oc2ccc(Cl)cc2)cc1 (racemic) [Compound #10]
Inhibition of CYPC19 (CYPC19): No meaningful inhibition | Maximal decrease in VEGF concentration in conditioned media ([1]; hypoxic (1% oxygen)): 57% | Mean VEGF concentration in conditioned media at maximal decrease ([1]; hypoxic (1% oxygen)): 606 pg/mL | Decrease in VEGF concentration in conditioned media ([1]; normoxic): 21% | Mean VEGF concentration in conditioned media in the presence of compound ([1]; normoxic): 192 pg/mL | Difference vs. vehicle in median number of days to reach 1000 mm^3 [2]: 8** Days | Mean difference in tumor growth rate at the Day that the vehicle-treated tumors taken off study ([2]; Day 11): 59%** | Final mean terminal tumor size in treatment group ([2]; Xeno): 1460 mm^3 | Dose of maximal exposure ([3]; Sprague Dawley, rat, in vivo, po, 1 day): 100 mg/kg | NOAEL at 1 day ([3]; Sprague Dawley, rat, in vivo, rats, single oral gavage, read-out: NOAEL for 1 day of dosing): 100 mg/kg | Clinical or clinical pathological toxicities ([3]; rats, single oral 100, 200, or 400 mg/kg): no notable clinical or clinical pathological toxicities | Behavioral or neurological effects [4]: no adverse behavioral or neurological effects | Proliferative and migratory capacity after three-week exposure, re-plated in the absence of compound (HT1080 cells [5]; 50 nM for 3 weeks): does not reduce either the proliferative or the migratory capacity | Migration of cells out of control spheroids re-plated in the presence of compound (HT1080 cells [5]; 50 nM, 48 hours): blocked in their ability to migrate out of the spheroid | Changes in cardiovascular or electrocardiographic (including QT interval) parameters [6]: no meaningful changes | Time after washout by which cells had resumed normal cycling (HT1080 cells [7]): ≤ 26 h | Mean inhibition of tumor VEGF concentration (tumor VEGF): 95% | Mean % Inhibition of Tumor Size vs Vehicle at Day 74 (T47D xenografts; 10 mg/kg oral QD): 40% | Toxicity on observing the animals (T47D xenografts; T47D xenograft mice, 10 mg/kg QD, 74 days): no evidence of toxicity | BrdU staining of tumor cells (proportion of cells in S phase) (HT1080 xenografts [8]): increased BrdU staining | QTc values vs controls ([9]; males, 60 mg/kg/day, 28-day study): comparable to controls | Increase in mean uncorrected QT value vs controls ([9]; males, 60 mg/kg/day, end of 28-day dosing): 7% | Toxicological effects on ECG or blood pressure ([9]; through 120 mg/kg/day for 7-days and through 60 mg/kg/day for 28-days): did not have any toxicological effects | EC50 ([10]; A-375, Melanoma, A375, hypoxic (1% oxygen), 48 hours): 0.05 µM | EC50 ([10]; A-431, Epidermoid, A431, 48 hours): 0.01 µM | EC50 ([10]; Breast, MDA-MB-468, hypoxic (1% oxygen), 48 hours): 0.005 µM | EC50 ([10]; Cervical, HeLa, hypoxic (1% oxygen), 48 hours): 0.002 µM | EC50 ([10]; Colorectal, HCT-116, 48 hours): 0.01 µM | EC50 ([10]; Gastric, AGS, 48 hours): 0.0001 µM | EC50 ([10]; Gastric, Kato III, hypoxic (1% oxygen), 48 hours): 0.01 µM | EC50 ([10]; HT-1080, Fibrosarcoma, HT1080, 48 hours): 0.01 µM | EC50 ([10]; Lung, A549, 48 hours): 0.05 µM | EC50 ([10]; Lung, Calu-6, hypoxic (1% oxygen), 48 hours): 0.007 µM | EC50 ([10]; Lung, NCI H460, 48 hours): 0.01 µM | EC50 ([10]; MDA-MB-231, 48 h): 0.005 µM | EC50 ([10]; Neuroblastoma, SY5Y, hypoxic (1% oxygen), 48 hours): 0.005 µM | EC50 ([10]; Pancreas, Capan-1, hypoxic (1% oxygen), 48 hours): 0.005 µM | EC50 ([10]; Prostate, LNCaP, hypoxic (1% oxygen), 48 hours): 0.015 µM | EC50 ([10]; Renal cell, HEK293, 48 hours): 0.01 µM | EC50 ([10]; SK-OV-3, Ovarian, SKOV3, hypoxic (1% oxygen), 48 hours): 0.01 µM | EC50 ([10]; SNU1, Gastric, SNU-1, 48 hours): 0.0001 µM | Toxicity on observing the animals (HT1080 xenografts [11]; HT1080 xenograft mice): no overt toxicity | Dose levels at which maximum antitumor activity was observed (HT1080 xenografts [11]; HT1080 xenografts): ≥ 1 mg/kg BID | Total volume of tumor vessels and diameters of vessels [12]: visibly reduced | Tumor vessel count [12]: unchanged
